Common to all, as to assay type: cell-based
Assay [1] relates to Lactobacillus salivarius PVD-32. The assay is described as follows: Influence of signal peptide on bacteriocin OR-7 production, flask culture (fraction protein at 215 nm, activity by Spot Test against C. jejuni and S. enteritidis).
Assay [2] deals with Streptococcus cricetus LWP 760. The assay is described as follows: Influence of signal peptide on bacteriocin 760 production, flask culture (fraction protein at 215 nm, activity by Spot Test against C. jejuni and S. enteritidis).
Assay [3] relates to Enterococcus faecium LWP 50-52. Kind of assay: Bacteriocin 50-52 production with signal peptide under scaled-up cultivation (bioreactor). Particulars: LWP 50-52 + LWP-320, 0.22 mg peptide added after 2 hours of cultivation, about 12 hours. The method, then: The antagonistic activity of the bacteriocins produced when using the signal peptide and an inducer strain of bacteria against C. jejuni and S. enteritidis was assessed using a Spot Test. The steps included taking various concentrations of pure preparation (μg/ml) of the bacteriocin in approximately 10 microliters of volume plated onto blood-supplemented Campylobacter agar or Nutrient agar (MPA or Meta Peptone Agar) previously seeded with cells of target bacteria. Plates containing cultures of C. jejuni were grown at about 42° C., under microaerobic conditions. Plates containing S. enteritidis were grown at about 37° C. under aerobic conditions. Activity of the bacteriocin was expressed in arbitrary units (AU) per one milliliter of the preparation at which a visible zone of inhibition of the growth of culture appears (Henderson et al., Archives of Biochemistry and Biophysics, Volume 295, 5-12, 1992; herein incorporated by reference). Specific activity can also expressed as arbitrary units per milligram of pure bacteriocin.
Isolation of bacteriocin 50-52 involved two steps: (1) the isolation of bacteriocin from the supernatant of the culture fluid and (2) the isolation of bacteriocin from the precipitate of cells of both the inducing and the producing strains. In step 1, the cultures were harvested and separated by centrifugation at about 10,000×g for about 15 minutes to precipitate the cells. The supernatant was applied to an Octyl Sepharose 4 Fast Flow column to recover the bacteriocin using an elution buffer of about 20 mM K2HPO4 buffer, pH approximately 7.0. The cell precipitate from step 2 was suspended in phosphate buffer with about 0.7% NaCl, pH approximately 5.6 (elution buffer) and the suspension was mixed and incubated for about 20 minutes. After incubation, the suspension was centrifuged at about 10,000×g for about 15 minutes. The bacteriocin was isolated from the supernatant using ion-exchange chromatography on Superose SP Fast Flow using an elution buffer containing about 10 mM Tris HCl and about 125 mM NaCl, pH approximately 7.5. Antagonistic activities of the bacteriocin fractions against C. jejuni and S. enteritidis were assessed in a spot-test. The level of purity of bacteriocins was determined by SDS-PAGE. The isoelectric points of the fractions were determined using isoelectricfocusing. Concentrations of protein for all bacteriocin fractions were determined at approximately 215 nm using a spectrophotometric method.
To evaluate influence of the signal peptide on bacteriocin production under scaled-up cultivation, producing and inducing strains were grown in a V-6 liter bioreactor containing about 6 liters of medium. The ratio of concentrations of cultures and the signal peptide was maintained as in Table 5 for the conditions of 10% Brucella Broth, LWP 50-52, LWP 320, 0.01 mg/ml of LWP 50-52 signal peptide added after about 2 hours of cultivation. Isolation of bacteriocin 50-52 was performed at about 8, 10, 12, and 14 hours of cultivation as described above. The control contained 10% Brucella Broth, LWP 50-52, LWP-320, at a pH of approximately 6.9, at about 37° C., and about 150 rpm. The bacteriocin 50-52 was isolated after about 12 hours of cultivation. For the second condition, the conditions were the same except that approximately 0.22 mg of LWP 50-52 signal peptide was added after 2 hours of cultivation. Each condition was repeated three times.

[4] abbreviates: 10% B-B, producer PVD-32 + inducer LWP-252, LWP 50-52 peptide 0.1 mg.
The mark [5] stands for this setting: LWP 760 + LWP 320, 0.1 mg LWP 50-52 peptide.

Regarding “TNVTKSWWVLAGCNQVVASNCNCGNVKGLT (listed as Enterococcus faecium) [LWP 50-52 Signal Peptide, signal peptide isolated from Enterococcus faecium LWP 50-52, stimulates bacteriocin 50-52 production]”, in assay [1] (setting [4]), the Activity is listed as 51,200 AU/ml, the Protein Concentration came out at 0.17 Mg/ml, the “Protein increase vs. Control” value was determined as 0.85 and the “Specific Activity” value is listed as 301,176 AU/mg. Also, the mg protein/liter in assay [1] (setting [4]) is on record as 56.1 mg protein/liter. Moreover, in assay [1] (signal peptide of another strain added to PVD-32 + LWP-252), the “yield of bacteriocin OR-7 versus the control” value is given as “does not increase”. For the same sequence, in assay [2] (setting [5]), the Activity is 1,638,840 AU/ml, the “Increase in amount of protein vs. control” value was found to be 1, the “Protein Concentration” value is 0.30 mg/mL and the “Protein Produced from 1 liter Culture Fluid” value stood at 99 mg. Also, the “Specific Activity” value in assay [2] (setting [5]) was 5,462,666 Au/mg. For the same sequence, the “yield of bacteriocin 760 versus control” value in assay [2] (signal peptide of another strain added to LWP 760 + LWP 320) is “did not increase”. Also, in assay [3], the Activity was 6,553,600 AU/ml, the “Increase in the amount of protein vs. control” value is listed as 4, the “Protein Concentration” value is 2.4 mg/mL and the “Specific Activity” value was 2,730,665 AU/mg. Further, the “Amount of Protein/liter of medium” value in assay [3] (listed as LWP 50-52 signal Peptide) is 360 mg. For the same sequence, in assay [3] (listed as LWP 50-52 signal peptide), the “Amount of Protein/liter of medium” value is listed as “about 360 mg”.

Source of the values: patent US7354904B2, “Bacteriocin inducer peptides” (priority 2005, dated 2008).
